Assay results reported in patent US20230082929A1, “METHODS OF GENERATING AND USING SENESCENT-INDUCED CELLS FOR TREATMENT OF CANCER AND COMPOSITIONS RELATING THERETO” (The Wistar Institute of Anatomy and Biology, priority 2020, published 2023).

Tests used:
STING = STING dimerization by immunoblot in IMR90 cells; assay type: cell-based, human; details: senescent IMR90 cells with HMGB2 knockdown
Experimental: Cells were lysed in 1× sample buffer (2% SDS, 10% glycerol, 0.01% bromophenol blue, 62.5 mM Tris, pH 6.8, and 0.1 M DTT) and heated to 95° C. for 10 min. Protein concentrations were determined using the protein assay dye (Bio-Rad. Cat. No: #5000006) and Nanodrop. An equal amount of total protein was resolved using SDS-PAGE gels and transferred to PVDF membranes at 110 V for 2 hours at 4° C. Membranes were blocked with 5% nonfat milk in TBS containing 0.1% Tween 20 (TBS-T) for 1 hour at room temperature. Membranes were incubated overnight at 4° C. in the primary antibodies in 4% BSA/TBS+0.025% sodium azide. Membranes were washed four times in TBS-T for 5 min at room temperature, after which they were incubated with HRP-conjugated secondary antibodies (Cell Signaling Technology. Cat. No: 7076S, 7074S) for 1 hour at room temperature. After washing four times in TBS-T for 5 min at room temperature, proteins were visualized on film after incubation with SuperSignal West Pico PLUS Chemiluminescent Substrate (Thermo Fisher Scientific. Cat. No: 34580).

cGAS = cGAS localization into CCF by immunofluorescence; assay type: cell-based, human; details: HMGB2 knockout cells
Experimental: Cells were fixed with 4% paraformaldehyde (PFA) for 15 mins at room temperature followed by permeabilization with 0.2% Triton X-100 in PBS for 5 min. For DNase I digestion, after fixation and permeabilization, cells were treated with 500 units/mL RNase-Free DNase I (Qiagen, Cat. No: 79254) for one hour at 37° C. After blocking with 1% BSA in PBS, cells were incubated with primary antibody overnight at 4° C. and Alexa-Fluor conjugated secondary antibody (Life Technologies). Fluorescent images were captured using Leica TCS SP5 II scanning confocal microscope.

SASP factors = assay: Secreted cytokine antibody array, IMR90 cells; assay type: cell-based, human; details: HMGB2 knockdown senescent IMR90 cells
Experimental: For cytokine-array analysis, cells were washed once and cultured in serum-free medium for 48 hours (Nacarelli et al., 2019). Conditioned medium was filtered (0.2 μm) and then subjected to cytokine-array assay using Human Cytokine Array C1 kit (RayBiotech. Cat. No: AAH-CYT-1-2) following the manufacturer's guidelines. After collection of conditional media, the cell number of each sample was counted. The intensities of array dots were visualized on film after incubation with SuperSignal West Pico PLUS Chemiluminescent Substrate (Thermo Fisher Scientific. Cat. No: 34580). The integrated density was measured using Image J and normalized to the cell number from which the conditioned medium was generated.

TOP1cc = biological target: T1, TOP1cc (Homo sapiens, UniProt P11387); assay: Slot blot analysis of TOP1cc levels in purified CCF of senescent cells; assay type: cell-based; parameters: endogenous in cells; host or cells: IMR90 human fibroblasts (senescent or proliferating, with or without shHMGB2); OVCAR3 (with or without HMGB2 knockout); details: CCF isolated from HMGB2 knockdown or knockout senescent cells (IMR90, OVCAR3)
T1 sequence (P11387 1-765): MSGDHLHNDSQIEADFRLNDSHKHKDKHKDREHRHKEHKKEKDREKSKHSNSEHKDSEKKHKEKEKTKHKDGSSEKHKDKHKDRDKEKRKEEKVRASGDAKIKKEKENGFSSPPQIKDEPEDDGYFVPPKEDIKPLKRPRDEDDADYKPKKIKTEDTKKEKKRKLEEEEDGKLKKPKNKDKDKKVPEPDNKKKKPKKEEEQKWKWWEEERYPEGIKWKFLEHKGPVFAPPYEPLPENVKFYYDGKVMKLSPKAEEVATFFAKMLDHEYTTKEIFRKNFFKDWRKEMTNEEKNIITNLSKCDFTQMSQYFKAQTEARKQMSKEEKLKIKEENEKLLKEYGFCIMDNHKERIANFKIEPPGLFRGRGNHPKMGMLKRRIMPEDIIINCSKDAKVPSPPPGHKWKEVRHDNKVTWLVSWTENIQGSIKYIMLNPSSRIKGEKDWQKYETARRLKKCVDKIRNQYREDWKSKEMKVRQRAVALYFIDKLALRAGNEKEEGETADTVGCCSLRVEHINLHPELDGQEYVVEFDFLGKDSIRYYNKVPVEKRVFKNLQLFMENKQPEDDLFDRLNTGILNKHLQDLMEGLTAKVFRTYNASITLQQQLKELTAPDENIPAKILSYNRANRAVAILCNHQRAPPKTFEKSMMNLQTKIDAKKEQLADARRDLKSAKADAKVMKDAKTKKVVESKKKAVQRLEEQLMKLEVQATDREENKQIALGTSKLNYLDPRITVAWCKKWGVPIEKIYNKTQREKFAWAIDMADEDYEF
Experimental: A CCF purification protocol was developed by modifying previous protocols (Shimizu et al., 1996; Ly et al., 2017). Briefly, 500 million senescent cells were collected, resuspended, and incubated in DMEM containing 10 μg/mL cytochalasin B for 30 minutes at 37° C. After wash once with ice-cold PBS, the cell pellet was gently dounce homogenized in ice-cold pre-chilled lysis buffer (10 mM Tris-HCl, 2 mM magnesium acetate, 3 mM CaCl2), 0.32 M sucrose, 0.1 mM EDTA, 1 mM DTT, 0.1% NP-40, 0.15 mM spermine, 0.75 mM spermidine, 10 μg/ml cytochalasin B, pH 8.5, 4° C.) with ten slow strokes of a loose-fitting pestle. Release of nuclei was confirmed by DAPI-staining and microscopy. The homogenate was fixed with 1% formaldehyde for 10 minutes, and mixed well with an equal volume of 1.6M sucrose buffer (10 mM Tris-HCl, 5 mM magnesium acetate, 0.1 mM EDTA, 1 mM DTT, 0.3% BSA, 0.15 mM spermine, 0.75 mM spermidine, pH 8.0, 4° C.). A 10 mL portion of homogenate was layered on the top of sucrose buffer gradient (20 mL and 15 mL containing 1.8M and 1.6M of sucrose, respectively) in a 50 mL tissue culture tube. The tubes were centrifuged at 1200×g for 20 minutes at 4° C. After centrifugation, the upper 3 mL of the gradient was discarded, and the next 15 mL containing CCFs was collected. […] DNA concentration was measured using Nanodrop and 5 μg DNA was used for slot blot analysis.

`CC[C@@]1(O)C(=O)OCc2c1cc1n(c2=O)Cc2cc3ccccc3nc2-1` [CPT, Camptothecin] was tested, and the STING dimerization (STING) was “rescued the suppression of STING dimerization”, the “localization of cGAS and TOP1cc into CCF” value (cGAS) was “rescue of the localization of cGAS and TOP1cc into CCF” and the “secretion of SASP factors (antibody array)” value (SASP factors) was “restoration of the secretion of SASP factors”. For the same compound, the “TOP1cc levels in CCF” value (TOP1cc) was “restored the TOP1cc levels” and the “TOP1cc levels in CCF” value (TOP1cc; listed as Camptothecin) was “Rescue of the decrease in TOP1cc levels”.
